In publication PMC11183114, “Structural basis of S-adenosylmethionine-dependent allosteric transition from active to inactive states in methylenetetrahydrofolate reductase” (Nature Communications, 2024):
Positions count from the first letter of the chain named. Where two headings read alike, the source gives them in different places. Each block holds one compound with its values, some of them ahead of it.

Columns and labels:
[1] = target: T1, methylenetetrahydrofolate reductase (cMTHFR) (Thermochaetoides thermophila, UniProt G0S5U9); test: UV-Vis titration (FAD absorbance quench at […] nm, Hill fit, coefficient […]); […] also inhibits NADPH-menadione oxidoreductase activity by […]; assay type: binding
T1 construct: gene CTHT_0033700; cMTHFR^wt
T1 sequence (G0S5U9 1-614): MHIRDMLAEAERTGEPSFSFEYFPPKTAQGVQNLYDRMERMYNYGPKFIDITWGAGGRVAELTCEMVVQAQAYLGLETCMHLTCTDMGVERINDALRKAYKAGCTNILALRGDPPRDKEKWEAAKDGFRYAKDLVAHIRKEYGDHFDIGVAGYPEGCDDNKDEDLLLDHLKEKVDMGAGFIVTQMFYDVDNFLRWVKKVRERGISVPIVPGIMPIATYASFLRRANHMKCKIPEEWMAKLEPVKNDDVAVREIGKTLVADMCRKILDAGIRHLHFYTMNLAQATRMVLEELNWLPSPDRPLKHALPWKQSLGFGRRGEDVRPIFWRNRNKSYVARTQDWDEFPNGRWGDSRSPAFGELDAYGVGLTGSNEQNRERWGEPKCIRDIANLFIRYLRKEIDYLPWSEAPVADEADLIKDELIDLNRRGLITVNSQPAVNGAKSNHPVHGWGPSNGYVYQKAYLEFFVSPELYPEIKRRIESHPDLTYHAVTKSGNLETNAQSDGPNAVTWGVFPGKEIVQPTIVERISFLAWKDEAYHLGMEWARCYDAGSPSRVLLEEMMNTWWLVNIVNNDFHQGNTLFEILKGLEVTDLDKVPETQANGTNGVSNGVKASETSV

[2] = target: T2, methylenetetrahydrofolate reductase (cMTHFR) (Thermochaetoides thermophila, UniProt G0S5U9, R315A); test: X-ray crystal structure, […] Å (T-state); assay type: binding; design: gene CTHT_0033700; cMTHFR^R315A, homodimer; two AdoMet per regulatory domain
T2 sequence (G0S5U9 1-614 R315A): T1 sequence (G0S5U9 1-614) with R315A
Excerpt: Unexpectedly, two molecules of AdoMet were found

[3] = target: T2, methylenetetrahydrofolate reductase (cMTHFR); test: X-ray crystal structure, […] Å (T-state); assay type: binding; design: gene CTHT_0033700; cMTHFR^R315A
[4] = target: T3, methylenetetrahydrofolate reductase (cMTHFR) (Thermochaetoides thermophila, UniProt G0S5U9, E21Q/L393M/V516F); test: X-ray crystal structure, […] Å (R-state); assay type: binding
T3 construct: gene CTHT_0033700; cMTHFR^E21Q, L393M, V516F, surface lysines reductively methylated
T3 sequence (G0S5U9 1-614 E21Q/L393M/V516F): T1 sequence (G0S5U9 1-614) with E21Q, L393M, V516F

[5] = target: T1, methylenetetrahydrofolate reductase (cMTHFR); test: NADH-menadione oxidoreductase assay, purified enzyme ([…] NADH); assay type: biochemical
[6] = target: T1, methylenetetrahydrofolate reductase (cMTHFR); test: NADPH-menadione oxidoreductase assay, purified enzyme ([…] NADPH); assay type: biochemical

SMILES: C[S@@+](CC[C@H](N)C(=O)[O-])C[C@H]1O[C@@H](n2cnc3c(N)ncnc32)[C@H](O)[C@@H]1O [AdoMet]
- Kd [1]: ~18.8 µM
- X-ray crystal structure, 2.8 Å (T-state) [2]: The regulatory domain was found to bind AdoMet, as expected for the T-state. Unexpectedly, two molecules of AdoMet were found

SMILES: Cc1cc2nc3c(=O)[nH]c(=O)nc-3n(C[C@H](O)[C@H](O)[C@H](O)COP(=O)(O)OP(=O)(O)OC[C@H]3O[C@@H](n4cnc5c(N)ncnc54)[C@H](O)[C@@H]3O)c2cc1C [FAD]
- X-ray crystal structure, 2.8 Å (T-state) [3]: the si-face of FAD is occluded by Tyr361 on the C-terminal region of the linker, which forms a π-stacking interaction
- X-ray crystal structure, 3.4 Å (R-state) [4]: Electron density for FAD was observed in every catalytic active site.

- NADH-menadione oxidoreductase assay, purified enzyme (100 μM NADH) [5]: 44 µM/min
SMILES: NC(=O)C1=CN([C@@H]2O[C@H](COP(=O)(O)OP(=O)(O)OC[C@H]3O[C@@H](n4cnc5c(N)ncnc54)[C@H](O)[C@@H]3O)[C@@H](O)[C@H]2O)C=CC1 [NADH]

- NADPH-menadione oxidoreductase assay, purified enzyme (100 μM NADPH) [6]: 120 µM/min
SMILES: NC(=O)C1=CN([C@@H]2O[C@H](COP(=O)(O)OP(=O)(O)OC[C@H]3O[C@@H](n4cnc5c(N)ncnc54)[C@H](OP(=O)(O)O)[C@@H]3O)[C@@H](O)[C@H]2O)C=CC1 [NADPH]
